# According to PMC10388311, “Innovative Strategy toward Mutant CFTR Rescue in Cystic Fibrosis: Design and Synthesis of Thiadiazole Inhibitors of the E3 Ligase RNF5” (Journal of Medicinal Chemistry, 2023):
# Entries after “also recorded” stand apart in the source; their conditions may differ.
# Experiments:
# [1] = biological target: F508del-CFTR in CFBE41o– cells (Homo sapiens, UniProt Q99942); assay: CFTR immunoprecipitation and Western blot (CFTR expression and ubiquitylation); assay type: cell-based; conditions: 24 h, 16 5 μM, VX-661 + VX-445 10 μM + 3 μM
# F508del-CFTR in CFBE41o– cells, sequence (Q99942 2-180): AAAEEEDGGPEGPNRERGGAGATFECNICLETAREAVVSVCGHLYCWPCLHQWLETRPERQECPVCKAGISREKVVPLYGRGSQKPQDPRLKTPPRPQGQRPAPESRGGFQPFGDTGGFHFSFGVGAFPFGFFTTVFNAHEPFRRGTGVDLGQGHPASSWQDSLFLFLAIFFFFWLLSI
# F508del-CFTR in CFBE41o– cells, sequence (P13569 with tags, fused parts or gaps DEL508-508 partner): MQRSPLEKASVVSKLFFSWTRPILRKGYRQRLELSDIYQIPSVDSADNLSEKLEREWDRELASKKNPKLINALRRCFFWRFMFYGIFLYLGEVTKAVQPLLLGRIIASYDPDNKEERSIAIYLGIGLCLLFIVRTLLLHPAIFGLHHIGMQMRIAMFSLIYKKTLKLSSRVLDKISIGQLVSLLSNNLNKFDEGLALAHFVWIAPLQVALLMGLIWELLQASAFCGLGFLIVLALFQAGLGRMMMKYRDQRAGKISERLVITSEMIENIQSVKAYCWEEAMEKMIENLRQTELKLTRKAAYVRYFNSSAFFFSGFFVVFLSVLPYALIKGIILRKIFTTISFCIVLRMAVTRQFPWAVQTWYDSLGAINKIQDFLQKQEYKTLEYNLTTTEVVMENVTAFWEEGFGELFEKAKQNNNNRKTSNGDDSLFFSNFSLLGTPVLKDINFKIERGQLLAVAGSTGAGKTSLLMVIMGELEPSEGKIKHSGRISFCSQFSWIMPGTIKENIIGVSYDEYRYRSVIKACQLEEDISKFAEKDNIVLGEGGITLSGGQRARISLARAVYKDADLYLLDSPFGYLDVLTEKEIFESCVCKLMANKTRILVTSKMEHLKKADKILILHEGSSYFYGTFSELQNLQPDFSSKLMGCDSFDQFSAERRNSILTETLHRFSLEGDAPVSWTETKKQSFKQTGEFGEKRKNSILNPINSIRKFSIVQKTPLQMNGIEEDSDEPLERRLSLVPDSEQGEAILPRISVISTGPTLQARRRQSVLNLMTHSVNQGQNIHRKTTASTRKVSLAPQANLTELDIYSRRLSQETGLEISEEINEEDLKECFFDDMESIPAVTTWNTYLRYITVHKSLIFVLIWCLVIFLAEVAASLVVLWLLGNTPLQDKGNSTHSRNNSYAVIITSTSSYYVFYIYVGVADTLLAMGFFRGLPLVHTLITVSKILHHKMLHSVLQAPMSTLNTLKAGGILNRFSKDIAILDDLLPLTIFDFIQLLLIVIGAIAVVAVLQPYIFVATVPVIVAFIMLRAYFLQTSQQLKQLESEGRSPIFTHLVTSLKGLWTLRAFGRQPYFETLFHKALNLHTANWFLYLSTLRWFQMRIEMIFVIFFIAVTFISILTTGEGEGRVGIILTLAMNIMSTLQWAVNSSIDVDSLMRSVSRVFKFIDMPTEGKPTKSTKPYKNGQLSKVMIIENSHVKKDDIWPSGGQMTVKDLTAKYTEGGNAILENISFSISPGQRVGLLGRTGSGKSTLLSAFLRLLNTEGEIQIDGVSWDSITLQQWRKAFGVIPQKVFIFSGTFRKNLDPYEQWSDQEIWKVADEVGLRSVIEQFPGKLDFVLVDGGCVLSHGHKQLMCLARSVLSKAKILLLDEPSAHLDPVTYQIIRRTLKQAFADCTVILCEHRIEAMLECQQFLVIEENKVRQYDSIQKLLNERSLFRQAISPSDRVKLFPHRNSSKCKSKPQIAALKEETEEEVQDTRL
# Experimental: Finally, we evaluated ubiquitylation of mutant CFTR in CFBE41o^– cells following 24 h treatment with DMSO (vehicle), analogue 16, VX-661 + VX-445, and their combination. Subsequently, cells were treated for 4 h with DMSO alone or with MG-132 (10 μM; to block proteasomal degradation) and then lysed. Cell lysates were immunoprecipitated using an anti-CFTR antibody and then subjected to SDS-PAGE followed by Western blotting to evaluate CFTR expression and ubiquitylation status (Figure 9C–F). […] In brief, cells were lysed and, after centrifugation, the protein concentration in the supernatant was calculated using the BCA assay (Euroclone, Pero (MI), Italy) following supplier’s instructions An aliquot of supernatant corresponding to 600 μg of protein was incubated for 1 h with 2 μg/sample of rabbit polyclonal anti-CFTR antibody (Alomone Labs, Jerusalem, Israel), with rocking at room temperature (RT). […] Equal amounts of IP products were analyzed by Western blotting (20 μL). […] In brief, equal amounts of lysates (25 μg) or IP products (20 μL) were separated onto gradient 4–15% Criterion TGX Precast gels (Bio-rad laboratories Inc.), transferred to a nitrocellulose membrane with a Trans-Blot Turbo system (Bio-rad Laboratories Inc.), and analyzed by Western blotting. […]
# [2] = tested on: ATG4B-mediated basal autophagy in F508del-CFTR-expressing CFBE41o– cells; assay: Labeling of autophagic vacuoles with monodansylcadaverine (MDC); assay type: cell-based, human; conditions: test compounds 5 μM 24 h; torin-1 20 nM and SAR-405 2 μM in the last 3 h
# Description: To further support our hypothesis that CFTR rescue following treatment with test compounds was indeed due to RNF5 inhibition, we considered additional biological processes known to be regulated by RNF5 ligase activity. To this aim, we focused our attention on ATG4B, a known regulator of basal autophagy, whose degradation is mediated by RNF5 activity.[54]In vivo ubiquitination experiments previously confirmed that inh-2 inhibits ATG4B degradation, thus increasing the basal level of autophagy.[40] […] We thus evaluated the effect of inh-2 analogues on induction of the autophagy pathway. To this aim, we monitored the formation of autophagic vacuoles in F508del-CFTR-expressing CFBE41o^– cells (Figure 8) by using the autolysosome marker monodansylcadaverine (MDC). MDC accumulates inside autophagosomes. After fusion of autophagosomes with lysosomes, MDC fluorescence increases due to the acidic environment.[55] Therefore, F508del-CFTR-expressing CFBE41o^– cells were treated for 24 h with test compounds (5 μM), VX-809 (1 μM), or DMSO alone (vehicle). In the last 3 h of incubation, we added torin-1 (20 nM), a known autophagy inducer, and SAR-405 (2 μM), a potent inhibitor of the autophagic pathway. The cells were then loaded with MDC and evaluated by high-content confocal imaging to detect signal spots (corresponding to autophagic vacuoles) in each cell.
# CFBE41o^– cells stably expressing F508del-CFTR and the HS-YFP were plated (50,000 cells/well) on good-quality clear-bottom 96-well black microplates suitable for high-content imaging. After 24 h, cells were treated with test compounds or DMSO (as the negative control). […] After 24 h, cells were incubated with 50 μM MDC (Sigma-Aldrich) in PBS at 37 °C for 10 min.[62] After incubation, cells were washed three times with PBS and immediately analyzed. High-content imaging and data analysis were performed using the Opera Phenix (PerkinElmer) high-content screening system. Wells were imaged in confocal mode using a 40× water-immersion objective. The MDC signal was laser-excited at 405 nm, and the emission wavelengths were collected between 435 and 550 nm. Data analysis of MDC spot number was performed using the Harmony software (ver 4.5) of the Opera Phenix high-content system. Data are expressed as means ± SEM, n = 3 independent experiments. Statistical significance was tested by parametric ANOVA followed by the Dunnet multiple comparisons test (all groups against the control group).
"rescue of mutant CFTR (mature form, band C) [1]",SMILES,number of autophagic vacuoles (MDC signal spots) [2]
very modest,"COc1cccc(Cn2c(C)ns/c2=N\C(=N\c2ccccc2)c2ccccc2)c1 [Compound 16, (E)-N-((Z)-4-(3-Methoxybenzyl)-3-methyl-1,2,4-thiadiazol-5(4H)-ylidene)-N′-phenylbenzimidamide]",significantly increased; also recorded: strong activation of basal autophagy
,"Cc1ns/c(=N\C(=N\c2ccccc2)c2ccccc2)n1Cc1ccccc1 [inh-2, reference compound]",significantly increased
